From the NIST ThermoML archive (doi:10.1016/j.fluid.2018.02.009)

Conditions: Liquid, Closed cell (Static) method

O=C=O [carbon dioxide]
Conditions | vapor or sublimation pressure [kPa]
213.22 K | 410.4
223.15 K | 681.8
243.13 K | 1426.3
263.13 K | 2646.7
273.22 K | 3491.3
283.15 K | 4502.3
299.22 K | 6595
